Patent US12576074B2, “Kits and methods for induction of cardioversion in subjects with atrial arrhythmias” (InCarda Therapeutics, Inc., priority 2020, dated 2026)
Several values for one entry are separate records, joined by “and”; a condition that tells them apart may be missing. Equal entries are not always repeated. Where two headings read alike, the source gives them in different places.

Assays:
[1] = cited from earlier work
Sinclair swine [2] = experiment: Electrocardiograms after IV infusion in swine
Procedure: After the animals were transferred to study, all animals were randomly assigned to treatment groups per the study design described below. This study was designed as a cross-over design with a minimum of 1-week washout between Treatment “A” and Treatment “B”. […] Electrocardiograms (EKGs) were performed prior to infusion and within 30 minutes of dose completion for both “A” and “B” treatments. Infusions were performed under sedation and anesthesia was maintained post-infusion for the duration of the blood collections. Blood was collected following TABLE 5 below: prior to infusion, halfway through infusion, and at 0, 2, 4, 6, 8, 10, 15, 30, 45, 60, and 120 minutes post-infusion completion for both treatment “A” and “B”.
Swine were sedated with target doses of 0.5 mg/kg of midazolam and 25 mg/kg of ketamine (actual doses ranging from […] and 24.83-25.33 mg/kg, respectively), with the exception of one animal which received half the target doses per veterinary instruction (0.26 mg/kg midazolam and 12.67 mg/kg ketamine). Animals were anesthetized with isoflurane (5% for induction, ˜0.5-3% for maintenance) via face mask inhalation for the duration of the infusion and blood collections. All anesthesia and monitoring of vital parameters were performed in accordance with ACL-2011.
All animals underwent an electrocardiogram (EKG) using the EMKA system. EKGs were collected prior to dosing (any time prior to each dose administration) and within 30 minutes completion of each infusion per TLE-2125, Physiological Data Collection for Large Animals Using the emkaPACK4g Acquisition System. ECG waveforms were quantitatively evaluated for heart rate (HR) and PR, QRS, and QT/QTc intervals using a validated ecgAUTO system (v3.5.5, emka TECHNOLOGIES, Paris, France). • QTcB (Bazett's)=QT/RR(1/2) • QTcF (Fridericia)=QT/RR(1/3) • QTcV (Van de Water)=QT−0.087 (RR−1000) Where RR=time between successive beats, measured in milliseconds.

Ito = settings: value used in O'Hara-Rudy model; cited from earlier work
[3] = target: ryanodine receptor RyR2 (IRyR) (Homo sapiens, UniProt Q92736); settings: cited from earlier work
[4] = target: cardiac voltage-gated sodium channels (Nav1.5 subtype), peak sodium current (Homo sapiens, UniProt Q14524); settings: unbinding from bound sodium channels; cited from earlier work
IK1 = target: T1, IK1 (Homo sapiens, UniProt P63252); settings: flecainide increases IK1; used to calculate Gk1; cited from earlier work
T1 sequence (P63252 1-427): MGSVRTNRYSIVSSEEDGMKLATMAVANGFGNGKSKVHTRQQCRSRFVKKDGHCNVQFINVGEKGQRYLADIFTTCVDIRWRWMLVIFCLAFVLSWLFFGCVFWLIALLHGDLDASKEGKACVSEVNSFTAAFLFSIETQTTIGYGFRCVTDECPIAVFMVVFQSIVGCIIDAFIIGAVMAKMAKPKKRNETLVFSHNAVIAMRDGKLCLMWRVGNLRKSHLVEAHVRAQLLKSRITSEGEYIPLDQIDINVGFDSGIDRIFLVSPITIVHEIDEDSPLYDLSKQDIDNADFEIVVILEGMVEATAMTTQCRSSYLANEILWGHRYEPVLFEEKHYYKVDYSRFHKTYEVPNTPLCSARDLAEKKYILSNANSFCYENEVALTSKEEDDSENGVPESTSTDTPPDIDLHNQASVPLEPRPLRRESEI

[5] = system: paroxysmal atrial fibrillation; settings: average population; cited from earlier work
[6] = system: canine left ventricular wedge preparations; experiment: Canine left ventricular wedge preparation, repolarization/EAD sensitised (Series III); settings: ibutilide 50 nM 40 min, then flecainide 1.5 μM 30 min added; 3 mM KCl
Procedure: Drugs were administered in the order and concentrations specified in TABLE 4.
Canine left ventricular (LV) wedge preparations were excised from the same hearts used to obtain the right atrial preparations.
Panel A: Control. […] The numbers appearing under M APs indicate APD90 values, and those on the ECG recordings indicate QT interval values.

Sinclair swine [7] = experiment: Clinical observations and survival in swine; assay type: in vivo; settings: two animals (one treatment A, one treatment B); deemed due to anesthesia
Description: All animals survived to study completion. Animals underwent clinical observations continuously while the animals are under anesthesia during, pre- and post-dosing through to final blood collection per TXP-1532, Pharmacologic and Toxicological Observations of Experimental Animals, and twice daily per ACL-1974 Receipt, Quarantine and Husbandry of Swine. […] One of the animals in question was during the high-dose treatment (“B”) and was intubated and provided oxygen under the direction of veterinary staff. The other animal was during the low-dose treatment (“A”) and returned to breathing normally without need of additional support. Both of these abnormal events were deemed due to anesthesia.
All animals survived to study completion with no definitive test article clinical observations.

[8] = system: ACh-mediated AF in isolated arterially-perfused canine right atrium; experiment: Termination of ACh-induced persistent AF in canine isolated coronary-perfused right atrial preparations (Series II); design: species or system canine (Beagles); settings: flecainide 1.5 μM, ibutilide 20 nM, ACh 0.5 μM
Procedure: Experiments were performed using isolated arterially-perfused canine preparations consisting of right atrium with a rim of right ventricle. The hearts were from Beagles approximately 1 year of age and were stored in ice cold cardioplegic solution for approximately 40 minutes before experimentation.
During experiments, transmembrane action potential (AP) recordings (sampling rate 41 kHz) were obtained from the atrium and ventricle using floating glass microelectrodes (10-25 MΩ DC resistance). A pseudo-electrocardiogram (ECG) was recorded using two electrodes consisting of Ag/AgCl half cells placed in the Tyrode's solution, bathing the preparation, 1.0 to 1.2 cm from opposite ends of the atrial coronary-perfused preparations (FIG. 1). […] The diastolic threshold of excitation (DTE) was determined by increasing stimulus intensity in 0.01 mA steps starting from 0.1 mA, until a steady 1:1 activation was achieved. Post-repolarization refractoriness (PRR) was recognized when ERP exceeded APD90 in the ventricle and APD70 in atria. Ventricular ERP coincides with APD90, whereas atrial ERP generally coincides with APD70.
Ventricular electrical activity was monitored for the development of early afterdepolarizations (EADs) and torsade de pointes (TdP).
Stock solutions were made by dissolving test article dry powder in distilled water vehicle. […]

[9] = target: L-type calcium channels (ICaL), CaV1.2 channels (Homo sapiens, UniProt Q13936); settings: cited from earlier work
[10] = Treatment A (flecainide 1 mg/kg, ibutilide 0.007 mg/kg or both, IV), individual animal
[11] = Treatment B (flecainide 2 mg/kg, ibutilide 0.014 mg/kg or both, IV), individual animal

Sequence of ryanodine receptor RyR2 (IRyR) (Q92736 whole entry): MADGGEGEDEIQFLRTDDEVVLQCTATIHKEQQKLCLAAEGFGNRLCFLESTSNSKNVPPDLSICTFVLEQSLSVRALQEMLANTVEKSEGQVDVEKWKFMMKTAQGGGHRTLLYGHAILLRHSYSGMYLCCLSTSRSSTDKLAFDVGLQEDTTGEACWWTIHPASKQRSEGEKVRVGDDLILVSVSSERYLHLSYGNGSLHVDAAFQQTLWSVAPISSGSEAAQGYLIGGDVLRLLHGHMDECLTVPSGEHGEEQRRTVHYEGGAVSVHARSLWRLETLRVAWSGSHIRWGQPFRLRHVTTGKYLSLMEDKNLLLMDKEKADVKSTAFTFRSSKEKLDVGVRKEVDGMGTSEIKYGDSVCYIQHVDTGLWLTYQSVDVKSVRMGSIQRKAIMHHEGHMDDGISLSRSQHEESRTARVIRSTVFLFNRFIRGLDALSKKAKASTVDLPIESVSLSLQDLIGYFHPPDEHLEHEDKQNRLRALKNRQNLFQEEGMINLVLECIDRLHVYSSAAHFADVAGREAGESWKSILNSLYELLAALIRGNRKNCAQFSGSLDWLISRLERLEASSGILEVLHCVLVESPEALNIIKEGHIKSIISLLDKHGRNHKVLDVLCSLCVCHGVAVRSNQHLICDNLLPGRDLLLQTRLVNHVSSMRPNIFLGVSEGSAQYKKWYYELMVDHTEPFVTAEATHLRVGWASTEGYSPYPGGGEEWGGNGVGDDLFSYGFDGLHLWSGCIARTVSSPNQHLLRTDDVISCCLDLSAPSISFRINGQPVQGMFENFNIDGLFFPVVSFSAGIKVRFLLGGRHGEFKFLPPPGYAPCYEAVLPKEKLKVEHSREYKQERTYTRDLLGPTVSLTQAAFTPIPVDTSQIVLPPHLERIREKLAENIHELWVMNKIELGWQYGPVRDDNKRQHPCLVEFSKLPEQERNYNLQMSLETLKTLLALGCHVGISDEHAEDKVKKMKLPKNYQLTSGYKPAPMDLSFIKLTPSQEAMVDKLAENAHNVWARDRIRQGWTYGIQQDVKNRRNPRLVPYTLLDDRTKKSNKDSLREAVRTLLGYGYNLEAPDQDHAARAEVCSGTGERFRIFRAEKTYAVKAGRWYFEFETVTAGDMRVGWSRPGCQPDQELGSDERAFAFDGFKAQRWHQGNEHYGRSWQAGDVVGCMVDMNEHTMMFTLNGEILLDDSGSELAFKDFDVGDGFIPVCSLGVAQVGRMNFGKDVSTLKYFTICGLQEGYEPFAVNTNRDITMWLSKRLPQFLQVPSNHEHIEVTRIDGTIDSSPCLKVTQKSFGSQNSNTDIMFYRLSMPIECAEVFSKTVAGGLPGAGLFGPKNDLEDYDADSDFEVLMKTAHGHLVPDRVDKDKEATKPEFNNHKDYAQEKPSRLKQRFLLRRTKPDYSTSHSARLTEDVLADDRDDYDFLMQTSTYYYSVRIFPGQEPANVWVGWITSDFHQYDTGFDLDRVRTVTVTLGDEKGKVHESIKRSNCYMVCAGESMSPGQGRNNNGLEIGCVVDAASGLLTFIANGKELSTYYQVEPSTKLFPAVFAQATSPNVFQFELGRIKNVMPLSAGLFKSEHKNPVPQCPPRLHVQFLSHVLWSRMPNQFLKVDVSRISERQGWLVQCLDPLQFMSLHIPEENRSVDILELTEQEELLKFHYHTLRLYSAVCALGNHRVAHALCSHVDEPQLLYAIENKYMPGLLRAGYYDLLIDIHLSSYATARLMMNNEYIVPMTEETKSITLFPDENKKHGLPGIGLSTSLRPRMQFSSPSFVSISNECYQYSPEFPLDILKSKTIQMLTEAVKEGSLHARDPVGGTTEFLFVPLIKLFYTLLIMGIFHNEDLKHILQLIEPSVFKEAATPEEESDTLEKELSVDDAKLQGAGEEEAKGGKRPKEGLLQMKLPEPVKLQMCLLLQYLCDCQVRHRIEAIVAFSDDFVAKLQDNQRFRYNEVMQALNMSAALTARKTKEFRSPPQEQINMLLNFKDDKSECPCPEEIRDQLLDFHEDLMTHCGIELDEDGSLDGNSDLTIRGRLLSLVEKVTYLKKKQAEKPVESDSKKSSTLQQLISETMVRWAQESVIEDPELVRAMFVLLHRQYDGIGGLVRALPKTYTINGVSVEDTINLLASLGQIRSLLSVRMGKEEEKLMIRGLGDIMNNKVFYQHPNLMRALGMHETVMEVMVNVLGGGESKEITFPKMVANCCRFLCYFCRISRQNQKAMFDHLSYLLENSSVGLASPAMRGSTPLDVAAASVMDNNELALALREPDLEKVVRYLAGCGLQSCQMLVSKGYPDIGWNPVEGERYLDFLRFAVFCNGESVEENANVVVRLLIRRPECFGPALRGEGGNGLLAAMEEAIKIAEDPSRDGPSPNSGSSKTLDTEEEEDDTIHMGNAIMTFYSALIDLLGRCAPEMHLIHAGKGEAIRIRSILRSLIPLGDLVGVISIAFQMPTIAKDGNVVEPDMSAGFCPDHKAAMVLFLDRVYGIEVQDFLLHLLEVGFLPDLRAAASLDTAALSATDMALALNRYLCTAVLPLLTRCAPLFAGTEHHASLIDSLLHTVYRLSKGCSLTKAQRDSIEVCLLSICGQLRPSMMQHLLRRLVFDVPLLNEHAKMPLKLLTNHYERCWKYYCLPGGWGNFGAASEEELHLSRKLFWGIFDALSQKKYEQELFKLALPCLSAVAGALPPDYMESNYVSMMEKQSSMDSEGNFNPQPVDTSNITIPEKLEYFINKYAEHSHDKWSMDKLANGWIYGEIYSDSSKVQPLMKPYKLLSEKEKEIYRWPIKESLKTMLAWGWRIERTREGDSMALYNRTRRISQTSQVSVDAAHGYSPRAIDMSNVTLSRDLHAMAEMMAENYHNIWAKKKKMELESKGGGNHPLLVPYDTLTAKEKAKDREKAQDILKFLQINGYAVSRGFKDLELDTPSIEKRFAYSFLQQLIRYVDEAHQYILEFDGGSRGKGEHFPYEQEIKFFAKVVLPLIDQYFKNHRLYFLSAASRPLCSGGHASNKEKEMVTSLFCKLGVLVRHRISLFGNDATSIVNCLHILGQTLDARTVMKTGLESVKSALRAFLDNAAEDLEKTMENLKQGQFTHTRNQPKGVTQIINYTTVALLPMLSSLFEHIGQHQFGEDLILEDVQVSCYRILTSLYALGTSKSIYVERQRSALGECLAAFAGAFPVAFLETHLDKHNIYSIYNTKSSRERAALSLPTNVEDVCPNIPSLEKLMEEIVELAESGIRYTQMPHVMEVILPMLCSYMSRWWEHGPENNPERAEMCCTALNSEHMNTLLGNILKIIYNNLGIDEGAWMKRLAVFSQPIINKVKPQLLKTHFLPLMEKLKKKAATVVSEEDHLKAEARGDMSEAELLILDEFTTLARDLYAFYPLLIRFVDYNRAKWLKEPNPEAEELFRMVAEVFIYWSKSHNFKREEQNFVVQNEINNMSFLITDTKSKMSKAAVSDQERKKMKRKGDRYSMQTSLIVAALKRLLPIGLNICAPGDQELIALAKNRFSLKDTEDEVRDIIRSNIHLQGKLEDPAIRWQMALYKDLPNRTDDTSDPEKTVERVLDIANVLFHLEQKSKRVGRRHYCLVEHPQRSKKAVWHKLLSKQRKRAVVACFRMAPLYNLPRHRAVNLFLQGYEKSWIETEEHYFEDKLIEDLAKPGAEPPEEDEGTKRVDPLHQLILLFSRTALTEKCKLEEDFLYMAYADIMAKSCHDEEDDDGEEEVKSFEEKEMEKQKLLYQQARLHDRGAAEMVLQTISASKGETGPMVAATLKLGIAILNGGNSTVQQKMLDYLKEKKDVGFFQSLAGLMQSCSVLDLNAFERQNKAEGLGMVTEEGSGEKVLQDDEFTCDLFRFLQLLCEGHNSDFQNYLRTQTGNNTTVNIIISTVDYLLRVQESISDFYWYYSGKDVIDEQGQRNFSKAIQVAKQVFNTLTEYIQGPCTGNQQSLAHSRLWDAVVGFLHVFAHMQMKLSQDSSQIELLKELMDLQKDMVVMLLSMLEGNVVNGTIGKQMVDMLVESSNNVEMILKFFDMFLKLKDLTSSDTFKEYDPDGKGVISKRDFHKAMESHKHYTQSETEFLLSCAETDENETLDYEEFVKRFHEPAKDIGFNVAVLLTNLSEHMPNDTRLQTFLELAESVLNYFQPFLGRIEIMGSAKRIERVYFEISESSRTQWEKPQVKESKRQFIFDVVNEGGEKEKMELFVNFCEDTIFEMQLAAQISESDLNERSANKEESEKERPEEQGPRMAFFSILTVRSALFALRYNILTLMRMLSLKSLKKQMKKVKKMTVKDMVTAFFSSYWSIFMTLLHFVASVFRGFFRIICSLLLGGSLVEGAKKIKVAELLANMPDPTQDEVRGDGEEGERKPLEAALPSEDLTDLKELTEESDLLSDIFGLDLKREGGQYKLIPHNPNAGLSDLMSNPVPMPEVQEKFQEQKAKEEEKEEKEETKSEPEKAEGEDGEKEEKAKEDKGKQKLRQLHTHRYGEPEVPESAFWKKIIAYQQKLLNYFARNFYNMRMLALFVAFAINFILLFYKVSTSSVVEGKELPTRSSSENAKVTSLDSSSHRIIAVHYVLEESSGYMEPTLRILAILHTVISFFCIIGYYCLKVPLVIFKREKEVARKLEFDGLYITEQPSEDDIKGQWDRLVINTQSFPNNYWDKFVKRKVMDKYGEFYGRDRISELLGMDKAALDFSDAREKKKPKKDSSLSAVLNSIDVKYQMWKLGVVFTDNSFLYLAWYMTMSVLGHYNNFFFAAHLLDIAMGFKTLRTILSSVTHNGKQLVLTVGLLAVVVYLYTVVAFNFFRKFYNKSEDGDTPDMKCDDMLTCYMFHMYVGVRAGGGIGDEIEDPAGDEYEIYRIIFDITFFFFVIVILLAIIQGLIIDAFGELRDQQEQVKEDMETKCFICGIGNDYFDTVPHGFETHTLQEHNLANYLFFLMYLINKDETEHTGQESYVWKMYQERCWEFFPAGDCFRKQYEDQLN

SMILES	Avg ATcV, baseline-normalized post-infusion (Sinclair swine [2]; [10])	Avg HR, baseline-normalized post-infusion (Sinclair swine [2]; [10])	Avg PR, baseline-normalized post-infusion (Sinclair swine [2]; [10])	Avg QRS, baseline-normalized post-infusion (Sinclair swine [2]; [10])	Avg QT, baseline-normalized post-infusion (Sinclair swine [2]; [10])	Avg QTcB, baseline-normalized post-infusion (Sinclair swine [2]; [10])	Avg QTcF, baseline-normalized post-infusion (Sinclair swine [2]; [10])	Avg ATcV, baseline-normalized post-infusion (Sinclair swine [2]; Treatment A, group mean) [%]	Avg HR, baseline-normalized post-infusion (Sinclair swine [2]; Treatment A, group mean) [%]	Avg PR, baseline-normalized post-infusion (Sinclair swine [2]; Treatment A, group mean) [%]	Avg QRS, baseline-normalized post-infusion (Sinclair swine [2]; Treatment A, group mean) [%]	Avg QT, baseline-normalized post-infusion (Sinclair swine [2]; Treatment A, group mean) [%]	Avg QTcB, baseline-normalized post-infusion (Sinclair swine [2]; Treatment A, group mean) [%]	Avg QTcF, baseline-normalized post-infusion (Sinclair swine [2]; Treatment A, group mean) [%]	Avg ATcV, baseline-normalized post-infusion (Sinclair swine [2]; [11])	Avg HR, baseline-normalized post-infusion (Sinclair swine [2]; [11])	Avg PR, baseline-normalized post-infusion (Sinclair swine [2]; [11])	Avg QRS, baseline-normalized post-infusion (Sinclair swine [2]; [11])	Avg QT, baseline-normalized post-infusion (Sinclair swine [2]; [11])	Avg QTcB, baseline-normalized post-infusion (Sinclair swine [2]; [11])	also measured
CCCCCCCCCCCCCCCC(=O)OC[C@H](COP(=O)([O-])OCC[N+](C)(C)C)OC(=O)CCCCCCCCCCCCCCC [DPPC, dipalmitoylphosphatidylcholine]																					solubility in water [1]: about 10^−10 mol/L
O=C(NCC1CCCCN1)c1cc(OCC(F)(F)F)ccc1OCC(F)(F)F (stereo not drawn) [Flecainide, N-(piperidin-2-ylmethyl)-2,5-bis(2,2,2-trifluoroethoxy)benzamide]	−4.4% and −6.0% and −2.6%	−7.2% and −26.5% and −9.6%	22.3% and 17.5% and 8.6%	0.1% and −1.3% and 3.5%	−3.5% and −1.6% and −1.4%	−7.1% and −15.7% and −6.3%	−5.9% and −11.2% and −4.7%	−4.3	−14.5	16.1	0.7	−2.2	−9.7	−7.3	11.4% and −2.3% and −1.9%	0.4% and −18.8% and −13.6%	13.3% and 9.7% and 24.6%	4.4% and 3.3% and 18.2%	12.6% and 2.1% and 0.1%	12.8% and −8.0% and −6.9%	Avg QTcF, baseline-normalized post-infusion (Sinclair swine [2]; [11]): 12.7% and −4.7% and −4.6%; Avg ATcV, baseline-normalized post-infusion (Sinclair swine [2]; Treatment B, group mean): 2.4%; Avg HR, baseline-normalized post-infusion (Sinclair swine [2]; Treatment B, group mean): −10.7%; Avg PR, baseline-normalized post-infusion (Sinclair swine [2]; Treatment B, group mean): 15.8%; Avg QRS, baseline-normalized post-infusion (Sinclair swine [2]; Treatment B, group mean): 8.7%; Avg QT, baseline-normalized post-infusion (Sinclair swine [2]; Treatment B, group mean): 4.9%; Avg QTcB, baseline-normalized post-infusion (Sinclair swine [2]; Treatment B, group mean): −0.7%; Avg QTcF, baseline-normalized post-infusion (Sinclair swine [2]; Treatment B, group mean): 1.1%; IC50 (Ito): 15.2 µM; IC50 ([3]; read-out: potency for inhibition of RyR2): ~20 µM; IC50 ([3]; value used in O'Hara-Rudy model, read-out: IC50 IRyR): 20 µM; unbinding time τoff [4]: ≈ 20.5 sec; EC50 (IK1): 0.4 µM; patients with paroxysmal atrial fibrillation exhibiting resistance to monotherapy [5]: approximately 30%
CCCCCCCN(CC)CCCC(O)c1ccc(NS(C)(=O)=O)cc1 (stereo not drawn) [Ibutilide, N-(4-(4-(ethyl(heptyl)amino)-1-hydroxybutyl)phenyl)methanesulfonamide]	14.4% and 10.5% and 5.0%	−19.5% and −54.7% and −28.7%	4.8% and 40.7% and 7.1%	8.2% and 7.3% and 4.9%	19.9% and 28.1% and 11.7%	7.5% and −13.4% and −5.8%	11.5% and −1.4% and −0.3%	10.0	−34.3	17.5	6.8	19.9	−3.9	3.3	16.1% and 13.1% and 13.6%	−38.3% and −12.7% and −15.4%	28.2% and 2.9% and 14.7%	7.7% and 16.8% and 6.5%	26.6% and 16.3% and 18.3%	−0.6% and 8.5% and 8.9%	Avg QTcF, baseline-normalized post-infusion (Sinclair swine [2]; [11]): 7.8% and 11.0% and 11.9%; Avg ATcV, baseline-normalized post-infusion (Sinclair swine [2]; Treatment B, group mean): 14.3%; Avg HR, baseline-normalized post-infusion (Sinclair swine [2]; Treatment B, group mean): −22.1%; Avg PR, baseline-normalized post-infusion (Sinclair swine [2]; Treatment B, group mean): 15.3%; Avg QRS, baseline-normalized post-infusion (Sinclair swine [2]; Treatment B, group mean): 10.3%; Avg QT, baseline-normalized post-infusion (Sinclair swine [2]; Treatment B, group mean): 20.4%; Avg QTcB, baseline-normalized post-infusion (Sinclair swine [2]; Treatment B, group mean): 5.6%; Avg QTcF, baseline-normalized post-infusion (Sinclair swine [2]; Treatment B, group mean): 10.3%; QT/QTc (QTcV) change post-infusion (Sinclair swine [2]; treatments A/B): increased; effect on repolarization (QT interval, Tpeak-Tend) [6]: significantly prolonged repolarization; abnormal clinical observations (Sinclair swine [7]): stopped breathing under anesthesia; termination of ACh-induced persistent AF (preparations terminated out of tested) [8]: 1 out of 3
[Mg+2] [Mg^2+]																					decrease in ICaL ([9]; ICaL stimulated by cAMP (beta-adrenergic agonists)): about 63%; decrease in ICaL ([9]; basal conditions): about 26%
